Source: patent US8173682B2, “Substituted pyridones as inhibitors of poly(ADP-ribose) polymerase (PARP)” (Aventis Pharmaceuticals Inc., priority 2004, dated 2012)
Structures can show the parent of a compound that is named as a salt.

Columns and labels:
[1] = target: T1, recombinant human PARP (PARP1) (Homo sapiens, UniProt P09874); test: PARP enzyme assay, Method A (radioactivity or 'ELISA' enzyme assay with partially purified enzyme); type: biochemical; settings: recombinant human PARP preparation, radioactive or ELISA enzyme assay
T1 construct: Full length human PARP (PARP1) is assembled from PCR fragments; His6 tag with TEV site, from the pFastBac-HTb vector (own knowledge of the vector); made in house; host or cells: insect cells, baculovirus (Bac-to-Bac, Gibco-BRL)
T1 sequence (P09874 whole entry, the tested form may be a part): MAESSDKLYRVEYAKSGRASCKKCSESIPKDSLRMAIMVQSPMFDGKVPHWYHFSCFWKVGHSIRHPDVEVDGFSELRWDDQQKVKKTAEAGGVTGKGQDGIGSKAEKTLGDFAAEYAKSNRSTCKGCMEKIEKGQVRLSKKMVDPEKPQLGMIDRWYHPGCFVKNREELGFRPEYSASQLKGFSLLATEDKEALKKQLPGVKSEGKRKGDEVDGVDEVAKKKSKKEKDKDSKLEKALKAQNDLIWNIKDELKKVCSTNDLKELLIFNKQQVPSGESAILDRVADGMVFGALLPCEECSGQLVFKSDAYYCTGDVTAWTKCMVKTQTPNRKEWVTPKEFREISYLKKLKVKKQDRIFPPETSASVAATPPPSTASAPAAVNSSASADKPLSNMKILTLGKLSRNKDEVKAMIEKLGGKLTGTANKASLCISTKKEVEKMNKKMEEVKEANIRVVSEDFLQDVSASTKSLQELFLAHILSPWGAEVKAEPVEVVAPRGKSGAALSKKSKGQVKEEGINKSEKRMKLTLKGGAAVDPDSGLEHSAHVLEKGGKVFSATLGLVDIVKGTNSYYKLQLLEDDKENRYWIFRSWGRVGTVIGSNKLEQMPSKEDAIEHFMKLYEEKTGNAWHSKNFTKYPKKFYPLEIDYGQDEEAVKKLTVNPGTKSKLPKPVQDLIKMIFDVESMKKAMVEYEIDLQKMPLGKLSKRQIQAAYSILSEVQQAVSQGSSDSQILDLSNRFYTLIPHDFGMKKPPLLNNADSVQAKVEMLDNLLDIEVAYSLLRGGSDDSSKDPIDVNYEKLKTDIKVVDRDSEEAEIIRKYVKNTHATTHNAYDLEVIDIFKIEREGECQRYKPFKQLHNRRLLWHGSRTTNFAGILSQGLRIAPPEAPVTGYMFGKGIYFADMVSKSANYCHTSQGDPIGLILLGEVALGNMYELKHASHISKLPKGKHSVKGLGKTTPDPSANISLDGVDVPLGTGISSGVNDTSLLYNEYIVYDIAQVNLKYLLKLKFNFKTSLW
Summary of the method: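 Partially purified recombinant full-length His-tagged human PARP1, baculovirus-expressed. Radioactive format: 100 μg/mL sonicated DNA, 100 μg/mL histones, 100 mM Tris pH 8.0, 10 mM MgCl2, 200 μM labeled NAD, 10 min 37 °C or 60 min RT, TCA-precipitated counts. ELISA format: 250 μM NAD plus biotin-NAD on histone plates, TMB A450.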

[2] = tested on: intracellular synthesis of poly(ADP-ribose) in HL60 cells; test: Cell-based PARP assay (poly(ADP-ribose) immunodetection in fixed cells); settings: Homo sapiens, HL-60, overnight incubation with compound, serum-free media
Protocol: The following example illustrates the efficacy of the compounds of this invention in inhibiting the effects of PARP in a cell based assay.
Reagents: Media RMPI 1640+Glutamax: Gibco 61870-044); TBST/milk, TBST (Sigma T93039) containing 5% skimmed milk (Nestle Carnation nonfat dry milk)
HL60 cells at […] in serum free media are seeded into the wells of a 96-well plate at 100 μL/well. The plate is pre-incubated for 3 hr under normal tissue culture conditions. One hundred μL of serum-free media containing compound at 2× the required concentration in 0.6% DMSO are added (or 0.6% DMSO only to controls and blanks). The plate is incubated overnight under normal tissue culture conditions, then centrifuged at 190×g for 5 min at 4° C. to pellet cells. The media is carefully removed by aspiration, and the cells are incubated in 100 μL/well ice-cold 0.56% KCl for 2 min on ice. The plate is centrifuged as above to pellet cells, the KCl removed by aspiration, and 100 μL/well ice-cold methanol added. After 4 min on ice, methanol is removed by aspiration and the cells air-dried for 10-15 min at rt. The cells are washed with PBS×3, then washed with TBST/milk (1 wash, 5 min incubation at rt). The cells are incubated with 100 μL/well 0.25% Triton X 100 in PBS for 10 min at RT, then washed x# with PBS and ×1 with TBST. The cells are blocked for 1 hr with TBST/milk (200 μL/well) and then washed ×1 with TBST. The fixed cells are incubated with primary antibody (Calbiochem cat no. 528815) at 1:2000 dilution in TBST/milk (100 μL/well, overnight at 4 deg C.). The cells are washed with TBST (2 rinses, 1×15 min, 2×5 min at RT). The cells are incubated with secondary antibody (anti-rabbit Ig-biotin conjugate, Amersham RPN1004) in TBST/milk at 1:3500 dilution, 100 μL/well for 1 hr at RT. The cells are washed with TBST (2 rinses, 1×15 min, 2×5 min at RT). The cells are then incubated with 100 μL/well of 4-MUP (Sigma, M3168) in the dark for 4 hrs. The fluorescence is read using a plate reader (excitation at 360 nm, emission at 440 nm). To calculate compound effects, the fluorescence of the blank (no cells) is subtracted from all data. Fluorescence obtained with a standard cell-permeable potent inhibitor at 30 μM is subtracted from all other groups as this appears to represent a true blank. Compound effects can then be determined: a PARP inhibitor blocks the intracellular synthesis of poly(ADP-ribose), and results in a decreased reactivity (reduced final fluorescence) with primary antibody in the fixed and permeabilized cells.
The results obtained from this study are expressed as EC50 (median effective concentration of the test compound that was effective in preventing the cell death—expressed in micromolar (μM) concentration) for each of the tested compounds and are summarized in Table 2.

Compound | IC50 [1] [µM] | EC50 [2] [nM]
CCc1cc(-c2ccc(S(=O)(=O)NCc3nc4ccccc4[nH]3)s2)c(C)[nH]c1=O [Example 118, 5-(5-Ethyl-2-methyl-6-oxo-1,6-dihydro-pyridin-3-yl)thiophene-2-sulfonic acid (1H-benzimidazol-2-ylmethyl)amide hydrochloride] | 0.15 | 30000
CCc1cc(-c2ccc(S(=O)(=O)N3CCC(O)C3)s2)c(C)[nH]c1=O (stereo not drawn) [Example 85, 3-Ethyl-5-[5-(3-hydroxypyrrolidine-1-sulfonyl)thiophen-2-yl]-6-methyl-1H-pyridin-2-one] | 0.31 | 330
CCc1cc(-c2ccc(S(=O)(=O)NCc3cc(F)cc(F)c3)s2)c(C)[nH]c1=O [Example 27, 5-(5-Ethyl-2-methyl-6-oxo-1,6-dihydropyridin-3-yl)thiophene-2-sulfonic acid 3,5-difluorobenzylamide] | 0.1 | 14200
CCc1cc(-c2ccc(CN3CCCC(O)C3)s2)c(C)[nH]c1=O (stereo not drawn) [Example 126, 3-Ethyl-5-[5-(3-hydroxypiperidin-1-ylmethyl)thiophen-2-yl]-6-methyl-1H-pyridin-2-one hydrochloride] | 0.43 | 30800
CCc1cc(-c2ccc(S(=O)(=O)NCCNC(C)=O)s2)c(C)[nH]c1=O [Example 119, N-{2-[5-(5-Ethyl-2-methyl-6-oxo-1,6-dihydropyridin-3-yl)thiophene-2-sulfonylamino]ethyl}acetamide] | 0.38 | 800
CCc1cc(-c2ccc(S(=O)(=O)N3CCCC(Cn4ccnc4)C3)s2)c(C)[nH]c1=O (stereo not drawn) [Example 70, 3-Ethyl-5-{5-[(3-imidazo-1-yl)methylpiperidine-1-sulfonyl]thiophene-2-yl}-6-methyl-1H-pyridin-2-one hydrochloride] | 0.26 | 260
Cc1[nH]c(=O)c2c(c1-c1cccc(C#N)c1)CCCC2 [Example 5, 3-(3-Methyl-1-oxo-1,2,5,6,7,8-hexahydroisoquinolin-4-yl)benzonitrile] | 0.2 | 500
CCc1cc(-c2ccc(S(=O)(=O)NCc3ccncc3)s2)c(C)[nH]c1=O [Example 110, 5-(5-ethyl-2-methyl-6-oxo-1,6-dihydropyridin-3-yl)thiophene-2-sulfonic acid (pyridin-4-ylmethyl)amide hydrochloride] | 0.08 | 20
CCc1cc(-c2noc(C)n2)c(C)[nH]c1=O [Example 22, 3-Ethyl-6-methyl-5-(5-methyl-1,2,4-oxadiazol-3-yl)-1H-pyridin-2-one] | 0.31 | 120
CCc1cc(-c2ccc(CN3CCCCC3)s2)c(C)[nH]c1=O [Example 148, 3-ethyl-6-methyl-5-(5-piperidin-1-ylmethy-thiophen-2-yl)-1H-pyridin-2-one hydrochloride] | 0.41 | 520
CCc1cc(-c2ccc(S(=O)(=O)NC3CCN(Cc4ccccc4)CC3)s2)c(C)[nH]c1=O [Example 39, 5-(5-Ethyl-2-methyl-6-oxo-1,6-dihydropyridin-3-yl)thiophene-2-sulfonic acid (1-benzylpiperidin-4-yl)amide hydrochloride] | 0.07 | 500
CCc1cc(-c2ccc(S(=O)(=O)NCc3cccnc3)s2)c(C)[nH]c1=O [Example 101, 5-(5-Ethyl-2-methyl-6-oxo-1,6-dihydropyridin-3-yl)-thiophene-2-sulfonic acid (pyridin-3-ylmethyl)amide hydrochloride] | 0.17 | 50
CCc1cc(-c2ccc(CNCC3CCCCC3)s2)c(C)[nH]c1=O [Example 143, 5-(5-Cyclohexylmethylaminomethylthiophen-2-yl)-3-ethyl-6-methyl-1H-pyridin-2-one hydrochloride] | 0.39 | 1430
CCc1cc(-c2ccc(S(=O)(=O)NCc3ccc(C(F)(F)F)cc3)s2)c(C)[nH]c1=O [Example 26, 5-(5-Ethyl-2-methyl-6-oxo-1,6-dihydropyridin-3-yl)thiophene-2-sulfonic acid 4-trifluoromethylbenzylamide] | 0.19 | 2940
CCc1cc(-c2ccc(S(=O)(=O)NCCc3ccncc3)s2)c(C)[nH]c1=O [Example 109, 5-(5-Ethyl-2-methyl-6-oxo-1,6-dihydropyridin-3-yl)thiophene-2-sulfonic acid (2-pyridin-4-yl-ethyl)amide hydrochloride] | 0.1 | 240
CCc1cc(-c2ccc(CNC(C)c3ccccc3)s2)c(C)[nH]c1=O (stereo not drawn) [Example 135, 3-Ethyl-6-methyl-5-{5-[(1-phenyl-ethylamino)-methyl]thiophen-2-yl}-1H-pyridin-2-one hydrochloride] | 0.35 | 12200
CCc1cc(-c2ccc(CNC(C)CCc3ccccc3)s2)c(C)[nH]c1=O (stereo not drawn) [Example 136, 3-Ethyl-6-methyl-5-{5-[(1-methyl-3-phenyl-propylamino)-methyl]thiophen-2-yl}-1H-pyridin-2-one hydrochloride] | 0.46 | 14700
CCc1cc(-c2ccc(S(=O)(=O)NCCc3cccnc3)s2)c(C)[nH]c1=O [Example 107, 5-(5-Ethyl-2-methyl-6-oxo-1,6-dihydropyridin-3-yl)thiophene-2-sulfonic acid (2-pyridin-3-yl-ethyl)amide hydrochloride] | 0.08 | 30
CCc1cc(-c2ccc(S(=O)(=O)NCCN3CCCC3)s2)c(C)[nH]c1=O [Example 95, 5-(5-Ethyl-2-methyl-6-oxo-1,6-dihydropyridin-3-yl)thiophene-2-sulfonic acid (2-pyrrolidin-1-yl)ethylamide hydrochloride] | 0.2 | 220
CCc1cc(-c2ccc(S(=O)(=O)NCCN(C)C)s2)c(C)[nH]c1=O [Example 93, 5-(5-Ethyl-2-methyl-6-oxo-1,6-dihydropyridin-3-yl)thiophene-2-sulfonic acid (2-dimethylaminoethyl)amide hydrochloride] | 0.85 | 560
CCc1cc(-c2ccc(CNCCOc3ccccc3)s2)c(C)[nH]c1=O [Example 146, 3-Ethyl-6-methyl-5-{5-[(2-phenoxyethylamino)-methyl]thiophen-2-yl}-1H-pyridin-2-one hydrochloride] | 0.24 | 970
CCc1cc(-c2ccc(S(=O)(=O)NCCCN3CCCCC3)s2)c(C)[nH]c1=O [Example 63, 5-(5-Ethyl-2-methyl-6-oxo-1,6-dihydro-pyridin-3-yl)-thiophene-2-sulfonic acid (3-piperidin-1-yl-propyl)-amide hydrochloride] | 0.42 | 430
CCc1cc(-c2ccc(S(=O)(=O)N3CCC(N4CCCCC4)CC3)s2)c(C)[nH]c1=O [Example 67, 3-Ethyl-6-methyl-5-{5-[(4-piperidin-1-yl)piperidine-1-sulfonyl]thiophen-2-yl}-1H-pyridin-2-one hydrochloride] | 0.3 | 3110
CCc1cc(-c2ccc(S(=O)(=O)N3CCN(c4ccc(F)cc4)CC3)s2)c(C)[nH]c1=O [Example 25, 3-Ethyl-5-{5-[4-(4-fluorophenyl)piperazine-1-sulfonyl]thiophen-2-yl}-6-methyl-1H-pyridin-2-one] | 0.76 | 4880
